For this experiment, the system named is longitudinal muscle of guinea pig ileum. Put plainly: Antagonism of the contraction elicited by SPOMe (substance P methyl ester) on guinea pig ileum longitudinal muscle (isometric contraction). Conditions: Cavia porcellus, compound at 1.0 μM, 0.1μM SPOMe.

Where a name gives a salt, the structure may show the parent alone. Bounds are passed on as bounds.

As a reminder, the inhibition is the percentage by which the read-out fell short of the control. A lower inhibition goes with a response near the control. With `FC(F)(F)c1ccccc1CO[C@H]1C2CCN(CC2)[C@H]1C(c1ccccc1)c1ccccc1` (relative stereo) [Example 2, cis-2-(Diphenylmethyl)-3-[2-(trifluoromethyl)benzyloxy]-1-azabicyclo[2.2.2]octane oxalate], the inhibition at 1 µM was over 70%.

As for `O=[N+]([O-])c1cccc(CO[C@H]2C3CCN(CC3)[C@H]2C(c2ccccc2)c2ccccc2)c1` (relative stereo) [Example 1, cis-2-(Diphenylmethyl)-3-(3-nitrobenzyloxy)-1-azabicyclo[2.2.2]octane oxalate], the inhibition at 1 µM is over 70%.

Consider `Fc1cc(F)cc(CO[C@H]2C3CCN(CC3)[C@H]2C(c2ccccc2)c2ccccc2)c1` (relative stereo) [Example 7, cis-3-(3,5-Difluorobenzyloxy)-2-(diphenylmethyl)-1-azabicyclo[2.2.2]octane oxalate], for which the inhibition at 1 µM was over 70%.

Consider `Clc1cccc(CO[C@H]2C3CCN(CC3)[C@H]2C(c2ccccc2)c2ccccc2)c1` (relative stereo) [Example 4, cis-3-(3-Chlorobenzyloxy)-2-(diphenylmethyl)-1-azabicyclo[2.2.2]octane oxalate], for which the inhibition at 1 µM was over 70%.

On to `COc1ccc(CO[C@H]2C3CCN(CC3)[C@H]2C(c2ccccc2)c2ccccc2)cc1` (relative stereo) [Example 8, cis-2-(Diphenylmethyl)-3-(4-methoxybenzyloxy)-1-azabicyclo[2.2.2]octane oxalate], for which the inhibition at 1 µM is over 70%.

The values above are taken from patent US5242930A, “Azabicyclic compounds, pharmaceutical compositions containing them and their use in therapy” (Merck Sharp & Dohme Ltd., priority 1991, dated 1993).
